What was measured:
Assay type in all cases: functional
[1] = system: Lolium rigidum; assay: Herbicidal activity against Lolium rigidum accession A10 assessed as emergence rate applied at 1 times pre-emergence recommended rate relative to untreated control
[2] = system: Lolium rigidum; assay: Herbicidal activity against Lolium rigidum accession A10 assessed as fresh weight reduction applied at 1 times pre-emergence recommended rate relative to untreated control; parameters: scale not given: the % may be the effect or the level left
[3] = system: Lolium rigidum; assay: Herbicidal activity against Lolium rigidum accession A08 assessed as emergence rate applied at 1 times pre-emergence recommended rate relative to untreated control
[4] = system: Lolium rigidum; assay: Herbicidal activity against Lolium rigidum accession A03 assessed as emergence rate applied at 1 times pre-emergence recommended rate relative to untreated control
[5] = system: Lolium rigidum; assay: Herbicidal activity against Lolium rigidum accession A02 assessed as emergence rate applied at 1 times pre-emergence recommended rate relative to untreated control
[6] = system: Lolium rigidum; assay: Herbicidal activity against Lolium rigidum accession A15 assessed as emergence rate applied at 1 times pre-emergence recommended rate relative to untreated control
[7] = system: Lolium rigidum; assay: Herbicidal activity against Lolium rigidum accession A12 assessed as fresh weight reduction applied at 1 times pre-emergence recommended rate relative to untreated control; parameters: scale not given: the % may be the effect or the level left
[8] = system: Lolium rigidum; assay: Herbicidal activity against Lolium rigidum accession A15 assessed as fresh weight reduction applied at 1 times pre-emergence recommended rate relative to untreated control; parameters: scale not given: the % may be the effect or the level left
[9] = system: Lolium rigidum; assay: Herbicidal activity against Lolium rigidum accession A06 assessed as fresh weight reduction applied at 1 times pre-emergence recommended rate relative to untreated control; parameters: scale not given: the % may be the effect or the level left
[10] = system: Lolium rigidum; assay: Herbicidal activity against Lolium rigidum accession A13 assessed as emergence rate applied at 1 times pre-emergence recommended rate relative to untreated control
[11] = system: Lolium rigidum; assay: Herbicidal activity against Lolium rigidum accession A08 assessed as fresh weight reduction applied at 1 times pre-emergence recommended rate relative to untreated control; parameters: scale not given: the % may be the effect or the level left
[12] = system: Lolium rigidum; assay: Herbicidal activity against Lolium rigidum accession A01 assessed as fresh weight reduction applied at 1 times pre-emergence recommended rate relative to untreated control; parameters: scale not given: the % may be the effect or the level left
[13] = system: Lolium rigidum; assay: Herbicidal activity against Lolium rigidum accession A14 assessed as emergence rate applied at 1 times pre-emergence recommended rate relative to untreated control
[14] = system: Lolium rigidum; assay: Herbicidal activity against Lolium rigidum accession A01 assessed as emergence rate applied at 1 times pre-emergence recommended rate relative to untreated control
[15] = system: Lolium rigidum; assay: Herbicidal activity against Lolium rigidum accession A06 assessed as emergence rate applied at 1 times pre-emergence recommended rate relative to untreated control
[16] = system: Lolium rigidum; assay: Herbicidal activity against Lolium rigidum accession A04 assessed as fresh weight reduction applied at 1 times pre-emergence recommended rate relative to untreated control; parameters: scale not given: the % may be the effect or the level left
[17] = system: Lolium rigidum; assay: Herbicidal activity against Lolium rigidum accession A07 assessed as emergence rate applied at 1 times pre-emergence recommended rate relative to untreated control
[18] = system: Lolium rigidum; assay: Herbicidal activity against Lolium rigidum accession A12 assessed as emergence rate applied at 1 times pre-emergence recommended rate relative to untreated control
[19] = system: Lolium rigidum; assay: Herbicidal activity against Lolium rigidum accession A09 assessed as emergence rate applied at 1 times pre-emergence recommended rate relative to untreated control
[20] = system: Lolium rigidum; assay: Herbicidal activity against Lolium rigidum accession A13 assessed as fresh weight reduction applied at 1 times pre-emergence recommended rate relative to untreated control; parameters: scale not given: the % may be the effect or the level left
[21] = system: Lolium rigidum; assay: Herbicidal activity against Lolium rigidum accession A05 assessed as emergence rate applied at 1 times pre-emergence recommended rate relative to untreated control
[22] = system: Lolium rigidum; assay: Herbicidal activity against Lolium rigidum accession A11 assessed as fresh weight reduction applied at 1 times pre-emergence recommended rate relative to untreated control; parameters: scale not given: the % may be the effect or the level left
[23] = system: Lolium rigidum; assay: Herbicidal activity against Lolium rigidum accession A02 assessed as fresh weight reduction applied at 1 times pre-emergence recommended rate relative to untreated control; parameters: scale not given: the % may be the effect or the level left
[24] = system: Lolium rigidum; assay: Herbicidal activity against Lolium rigidum accession A04 assessed as emergence rate applied at 1 times pre-emergence recommended rate relative to untreated control
[25] = system: Lolium rigidum; assay: Herbicidal activity against Lolium rigidum accession A11 assessed as emergence rate applied at 1 times pre-emergence recommended rate relative to untreated control
[26] = system: Lolium rigidum; assay: Herbicidal activity against Lolium rigidum accession A14 assessed as fresh weight reduction applied at 1 times pre-emergence recommended rate relative to untreated control; parameters: scale not given: the % may be the effect or the level left
[27] = system: Lolium rigidum; assay: Herbicidal activity against Lolium rigidum accession A05 assessed as fresh weight reduction applied at 1 times pre-emergence recommended rate relative to untreated control; parameters: scale not given: the % may be the effect or the level left
[28] = system: Lolium rigidum; assay: Herbicidal activity against Lolium rigidum accession A09 assessed as fresh weight reduction applied at 1 times pre-emergence recommended rate relative to untreated control; parameters: scale not given: the % may be the effect or the level left
[29] = system: Lolium rigidum; assay: Herbicidal activity against Lolium rigidum accession A07 assessed as fresh weight reduction applied at 1 times pre-emergence recommended rate relative to untreated control; parameters: scale not given: the % may be the effect or the level left
[30] = system: Lolium rigidum; assay: Herbicidal activity against Lolium rigidum accession A03 assessed as fresh weight reduction applied at 1 times pre-emergence recommended rate relative to untreated control; parameters: scale not given: the % may be the effect or the level left

CCCN(CCC)C(=O)SCc1ccccc1 [PROSULFOCARB]
Activity [1]: 0% | Activity [2]: 100% | Activity [3]: 0% | Activity [4]: 0% | Activity [5]: 0% | Activity [6]: 0% | Activity [7]: 100% | Activity [8]: 100% | Activity [9]: 100% | Activity [10]: 0% | Activity [11]: 100% | Activity [12]: 100% | Activity [13]: 0% | Activity [14]: 0% | Activity [15]: 0% | Activity [16]: 98% | Activity [17]: 0% | Activity [18]: 0% | Activity [19]: 0% | Activity [20]: 100% | Activity [21]: 0% | Activity [22]: 99% | Activity [23]: 100% | Activity [24]: 1% | Activity [25]: 1% | Activity [26]: 100% | Activity [27]: 100% | Activity [28]: 100% | Activity [29]: 100% | Activity [30]: 100%

— ChEMBL document CHEMBL3046358, “Multiple Pro-197 substitutions in the acetolactate synthase of rigid ryegrass (Lolium rigidum) and their impact on chlorsulfuron activity and plant growth” (Crop Prot, 2012)
